Like-named read-outs stand apart in the source and are kept apart here.
How the values were obtained:
[1] = target: T1, hA3AR (Homo sapiens, UniProt P0DMS8); experiment: TGFα shedding assay at hA3AR; format: cell-based; details: for Emax: HEK293 cells; for EC50: hA3AR-expressing HEK293 cells
T1 construct: expressed in transfected cells; host or cells: HEK293
T1 sequence (P0DMS8 1-318): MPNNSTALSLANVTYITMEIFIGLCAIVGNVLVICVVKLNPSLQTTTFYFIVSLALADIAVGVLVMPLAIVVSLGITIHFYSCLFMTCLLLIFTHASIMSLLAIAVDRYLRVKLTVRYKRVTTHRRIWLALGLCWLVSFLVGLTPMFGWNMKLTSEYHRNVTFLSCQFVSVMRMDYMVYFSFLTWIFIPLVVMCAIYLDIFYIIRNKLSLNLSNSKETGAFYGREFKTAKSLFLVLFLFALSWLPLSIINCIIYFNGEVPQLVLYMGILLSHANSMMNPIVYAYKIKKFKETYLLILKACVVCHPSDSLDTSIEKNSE
Experimental: This recently-developed assay utilizes an alkaline phosphatase-TGFα fusion protein reporter system to quantitatively evaluate specific GPCR-mediated G protein activation (shown in Figure 3) of test compounds [22].
Expression vectors (250 ng of AP-TGFα plasmid, 100 ng of hA2AAR/hA3AR plasmid and 50 ng of Gα protein) were transfected into HEK293 cells using Lipofectamine 2000 (1.25 μL/well) in 12-well plates. Transfection of siRNA (final concentration: 10 nM) was conducted with Lipofectamine RNAiMAX (1 μL/well), 48 h before assay to prevent interference from other signaling pathways. Transfected cells were detached with brief treatment with phosphate-buffered saline (PBS) containing 0.05% trypsin and 0.52 mM ethylenediaminetetraacetic acid (EDTA). The cell suspension was pelleted via centrifugation (190 g, 5 min). Trypsin was removed from the cells via resuspension in PBS, followed by 5 min of incubation at room temperature. Cells were subsequently pelleted with centrifugation (190 g, 5 min) and resuspended in Hank’s Balanced Salt Solution (HBSS) containing 5 mM 4-(2-hydroxyethyl)-1-piperazineethanesulfonic acid (HEPES) (pH 7.4). Resuspended cells were plated in 90 μL/well in 96-well plate and incubated at 37 °C in 5% CO2 for 30 min. 10 μL of 10X concentration of compounds were added and incubated for 1 h at 37 °C in 5% CO2. Plates were centrifuged at 190 g for 2 min. […] per well of conditioned medium (10 mM p-NPP, 40 mM Tris-HCl (pH 9.5), 40 mM NaCl & 10 mM MgCl2) was transferred into a conditioned medium plate and 80 µL per well of conditioned medium was added to the test compound plate. Absorbance at 405 nm (OD405) of both plates was read before and after a 1-h incubation at 37 °C using a microplate reader.

[2] = target: T1, hA3AR; details: read-out: Ki hA3; cited from earlier work
[3] = target: hA2B; details: cited from earlier work
[4] = target: T2, hA2AAR (Homo sapiens, UniProt P29274); details: ratio of binding affinities; cited from earlier work
T2 construct: expressed in transfected cells; host or cells: HEK293

[5] = target: hA1; details: cited from earlier work
[6] = target: T1, hA3AR; details: cited from earlier work
[7] = tested on: Caco-2 cell line; experiment: MTT cytotoxicity assay, Caco-2; format: cell-based; details: Homo sapiens; Caco-2, MTT, 72 h
Experimental: (§1) Human colorectal carcinoma cell lines, HCT-116 and Caco-2, were used as models for colorectal cancer cells overexpressing hA3AR. Human normal colon cell line CCD-18Co was used as a model for normal colon cells that express normal levels of hA3AR. The HCT-116, Caco-2 and CCD-18Co cell lines were all cultured in accordance with the ATCC protocols.
(§2) The cytotoxicity of compound 4 was determined by 3-(4,5-dimethylthiazol-2-yl)-2,5-diphenyltetrazolium bromide (MTT) assay. The cells were harvested from culture flasks by trypsinisation and seeded into 96-well microculture plates (Costar, Corning, USA) at the seeding density of 6000 cells per well or 10,000 per well (CCD18Co). After the cells were allowed to resume exponential growth for 24 h, they were exposed to compound 4 or 2-Cl-IB-MECA in media for 72 h. The drugs were diluted in complete medium at the desired concentration, and 100 μL of the drug solution was added to each well and serially diluted to other wells. After exposure for 72 h, drug solutions were replaced with 100 μL of MTT in complete media (5 mg ml^−1) and incubated for an additional 1 h. Subsequently, the medium was aspirated and the purple formazan crystals formed in viable cells were dissolved in 100 μL of dimethyl sulfoxide (DMSO) per well. Optical densities were measured at 570 nm with a microplate reader. […]

[8] = tested on: HCT-116 cell line; experiment: MTT cytotoxicity assay, HCT-116; format: cell-based; details: Homo sapiens; HCT-116, MTT, 72 h
Experimental: as §1, §2

[9] = tested on: HepG2 cell line; experiment: MTT cytotoxicity assay, HepG2; format: cell-based; details: Homo sapiens, 72 h
Experimental: The HepG2 cell line was also cultured in accordance with the ATCC protocol.
as §2, with “reader. The quantity of viable cells was expressed in terms of treated/control (T/C) values by comparison to untreated control cells, and 50% inhibitory concentrations (IC50) were calculated from concentration-effect curves by interpolation using GraphPad Prism (Version 5.0, GraphPad Software, USA).” for “reader.”

[10] = tested on: CCD-18Co cell line; experiment: MTT cytotoxicity assay, CCD-18Co; format: cell-based; details: Homo sapiens, CCD-18Co normal colon cell line, 72 h
Experimental: as §1, §2

[11] = UV-vis stability assay; format: physicochemical; details: 50 μM in water, RPMI-1640 and DMEM culture medium over 72 h
Experimental: Stock solution of 50 μM of compound 4 was prepared in DMSO. Two quartz cuvettes were soaked in 70% ethanol in water for 1h. The quartz cuvettes were subsequently left to dry in a biological safety cabinet. When both quartz cuvettes were dry, the quartz cuvettes, i.e., sample cuvette and blank cuvette, were filled with water or culture media (RPMI-1640 or DMEM) and parafilmed before being transferred into a UV-vis spectrophotometer (USA). The UV-vis spectrophotometer was auto-zeroed and the background was scanned from wavelengths of 200 nm to 800 nm. The sample cuvette was removed from the UV-vis spectrophotometer and transferred into the biological safety cabinet. Compound 4 was dissolved at a final concentration of 50 μM in 1.5 mL of water, RPMI or DMEM containing 10% FBS (without phenol red). The UV−vis profiles of the samples were monitored using UV-vis over 72 h at 1 h intervals from 200 to 800 nm.

[12] = tested on: human colon carcinoma patients; details: phase II; cited from earlier work
[13] = HEK293, efficacy as compared to adenosine, read-out: Emax

T2 sequence (P29274 whole entry): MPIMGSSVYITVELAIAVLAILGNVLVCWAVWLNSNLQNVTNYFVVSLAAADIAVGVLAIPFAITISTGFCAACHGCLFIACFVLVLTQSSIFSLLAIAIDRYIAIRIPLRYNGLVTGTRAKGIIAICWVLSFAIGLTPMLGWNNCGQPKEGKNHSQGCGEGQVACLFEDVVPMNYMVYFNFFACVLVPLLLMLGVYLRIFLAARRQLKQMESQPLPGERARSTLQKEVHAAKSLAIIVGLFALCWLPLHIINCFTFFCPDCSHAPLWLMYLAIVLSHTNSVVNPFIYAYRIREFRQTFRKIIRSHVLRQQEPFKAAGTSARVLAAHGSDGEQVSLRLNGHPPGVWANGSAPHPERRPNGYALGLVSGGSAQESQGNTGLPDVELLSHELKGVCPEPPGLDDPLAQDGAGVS

Molecule `Nc1ncnc2c1ncn2[C@@H]1O[C@H](CO)[C@@H](O)[C@H]1O` [Adenosine, reference compound] has an Emax [1, 13] of 100%.

In the case of `Cc1cc(C)nc(N2CCN(C(=O)Cc3c(C)[nH]c4ccccc34)CC2)n1` [Compound 1, indolylpyrimidylpiperazine (IPP)], the Ki [2] is given as > 100 µM, the Ki [3] is given as > 20 µM and the “selectivity hA2AAR/hA3AR” value [4] is given as > 12. The Ki [5] was > 100 µM.

In the case of `Cc1cc(C)nc(N2CCN(CCc3c(C)[nH]c4ccccc34)CC2)n1` [Compound 2, decarbonyl IPP], the Ki [3] is given as > 20 µM and the Ki [5] is given as > 100 µM.

For `CNC(=O)[C@H]1O[C@@H](n2cnc3c(NCc4cccc(I)c4)nc(Cl)nc32)[C@H](O)[C@@H]1O` [Compound 2-Cl-IB-MECA, 2-Cl-IB-MECA, reference compound], the β-arrestin translocation response [6] is given as 102 ± 13%, the IC50 [7] is given as 31 ± 4 µM and the IC50 [8] is given as 21 ± 6 µM. It also gave an IC50 [9] of 13 ± 3 µM.

In the case of `Cc1cc(C)nc(N2CCN(CC(=O)c3c[nH]c4ccccc34)CC2)n1` [Compound 3, 2-(4-(4,6-Dimethylpyrimidin-2-yl)piperazin-1-yl)-1-(1H-indol-3-yl)ethanone], the melting point is reported as 165 °C (dec.) and the EC50 [1] is reported as “essentially inactive”.

For `COc1cccc2c(C(=O)CN3CCN(c4nc(C)cc(C)n4)CC3)c[nH]c12` [Compound 4, 2-(4-(4,6-Dimethylpyrimidin-2-yl)piperazin-1-yl)-1-(7-methoxy-1H-indol-3-yl)ethanone], the IC50 [10] was 176 ± 48 µM, the melting point was 162 °C (dec.) and the IC50 [7] was 77 ± 10 µM. For the same molecule, the Emax [1, 13] was 30%, the Emax ([1]; efficacy as compared to adenosine) was 31% and the EC50 ([1]; read-out: EC50) was 2.89 ± 0.55 µM. For the same molecule, the “Stability (UV-vis)” value [11] was “excellent stability”, the IC50 [8] was 84 ± 9 µM and the IC50 [9] was 30 ± 7 µM.

In the case of `Cc1cc(C)nc(N2CCN(CC(=O)c3c[nH]c4c(Cl)cccc34)CC2)n1` [Compound 5, 2-(4-(4,6-Dimethylpyrimidin-2-yl)piperazin-1-yl)-1-(7-chloro-1H-indol-3-yl)ethanone], the melting point is reported as 163 °C (dec.), the Emax [1, 13] is reported as 77% and the EC50 ([1]; read-out: EC50) is reported as 13.4 ± 2.96 µM.

With `Cc1cc(C)nc(N2CCN(CC(=O)c3c[nH]c4c([N+](=O)[O-])cccc34)CC2)n1` [Compound 6, 2-(4-(4,6-Dimethylpyrimidin-2-yl)piperazin-1-yl)-1-(7-nitro-1H-indol-3-yl)ethanone] the melting point was 165 °C (dec.), the Emax [1, 13] was 72% and the EC50 ([1]; read-out: EC50) was 33.2 ± 16.5 µM.

In the case of `CNC(=O)[C@H]1O[C@@H](n2cnc3c(NCc4cccc(I)c4)ncnc32)[C@H](O)[C@@H]1O` [IB-MECA], the β-arrestin translocation response [6] is given as 100 ± 7% and the “disease stabilization, share of patients” value [12] is given as 35%.

In the case of `OC[C@H]1O[C@@H](n2cnc3c(NCc4cccc(I)c4)ncnc32)[C@H](O)[C@@H]1O` [MRS541], the β-arrestin translocation response [6] is listed as 30.8 ± 1.6%.

Reference: paper PMC6832257, “Design, Synthesis and Evaluation of New Indolylpyrimidylpiperazines for Gastrointestinal Cancer Therapy” (Molecules, 2019)
